Reference: patent US11445724B2, “Insecticidal compounds” (SYNGENTA PARTICIPATIONS AG, priority 2013, dated 2022)

How the values were obtained:
Type in all cases: in vivo
[1] = system: Thrips tabaci (Onion thrips); test: Thrips tabaci (Onion thrips) mortality, sprayed sunflower leaf discs; conditions: foliar, 168 h, 200 ppm spray on sunflower leaf discs, mixed ages, mortality after 7 days
[2] = system: Plutella xylostella (Diamond back moth); test: Plutella xylostella (Diamond back moth) larval mortality, artificial diet in 24-well MTP; conditions: 144 h, application rate 200 ppm (concentration in well 18 ppm), L2 larvae, larval mortality after 6 days
[3] = system: Myzus persicae (Green peach aphid); test: Myzus persicae (Green peach aphid) mortality, test compounds mixed with Sucrose solution under Parafilm; conditions: 120 h, 12.5 ppm in Sucrose solution, infested pea seedlings on Parafilm, mortality 5 days after infestation
[4] = system: Spodoptera littoralis (Egyptian cotton leafworm); test: Spodoptera littoralis (Egyptian cotton leafworm) mortality, sprayed cotton leaf discs; conditions: foliar, 72 h, 200 ppm spray on cotton leaf discs, L1 larvae, mortality 3 DAT
[5] = system: Diabrotica balteata (Corn root worm); test: Diabrotica balteata (Corn root worm) larval mortality, artificial diet in 24-well MTP; conditions: 120 h, application rate 200 ppm (concentration in well 18 ppm), L2 larvae, larval mortality after 5 days
[6] = system: Myzus persicae (Green peach aphid); test: Myzus persicae (Green peach aphid) mortality, sprayed sunflower leaf discs; conditions: foliar, 144 h, 200 ppm spray on sunflower leaf discs, mixed ages, mortality 6 DAT
[7] = system: Tetranychus urticae (Two-spotted spider mite); test: Tetranychus urticae (Two-spotted spider mite) mortality, sprayed bean leaf discs; conditions: foliar, 192 h, 200 ppm spray on bean leaf discs, mixed ages, egg, larval and adult mortality after 8 days

O=C(Nc1cccc(C(=O)Nc2c(Br)cc(C(F)(C(F)(F)F)C(F)(F)F)cc2OC(F)F)c1F)c1ccc(C(F)(F)F)cc1 [Compound 28]
≥ 80%: pest or weed control at 200 ppm [1] | pest or weed control at 200 ppm [2] | pest or weed control at 12.5 ppm [3] | pest or weed control at 200 ppm [4] | pest or weed control at 200 ppm [5] | pest or weed control at 200 ppm [6] | pest or weed control at 200 ppm [7]

O=C(Nc1cccc(C(=O)Nc2c(Br)cc(C(F)(C(F)(F)F)C(F)(F)F)cc2OC(F)F)c1F)c1ccccc1 [Compound 31]
≥ 80%: pest or weed control at 200 ppm [1] | pest or weed control at 200 ppm [2] | pest or weed control at 12.5 ppm [3] | pest or weed control at 200 ppm [4] | pest or weed control at 200 ppm [5] | pest or weed control at 200 ppm [6] | pest or weed control at 200 ppm [7]

O=C(Nc1cccc(C(=O)Nc2c(Br)cc(C(F)(C(F)(F)F)C(F)(F)F)cc2OC(F)F)c1F)c1ccc(F)cc1 [Compound 32]
≥ 80%: pest or weed control at 200 ppm [1] | pest or weed control at 200 ppm [2] | pest or weed control at 12.5 ppm [3] | pest or weed control at 200 ppm [4] | pest or weed control at 200 ppm [5] | pest or weed control at 200 ppm [6] | pest or weed control at 200 ppm [7]

O=C(Nc1cccc(C(=O)Nc2c(Br)cc(C(F)(C(F)(F)F)C(F)(F)F)cc2OC(F)F)c1F)c1ccc(F)cc1Cl [Compound 36]
≥ 80%: pest or weed control at 200 ppm [1] | pest or weed control at 200 ppm [2] | pest or weed control at 12.5 ppm [3] | pest or weed control at 200 ppm [4] | pest or weed control at 200 ppm [5] | pest or weed control at 200 ppm [6] | pest or weed control at 200 ppm [7]

O=C(Nc1cccc(C(=O)Nc2c(Br)cc(C(F)(C(F)(F)F)C(F)(F)F)cc2OC(F)F)c1F)c1cccc(F)c1F [Compound 38]
≥ 80%: pest or weed control at 200 ppm [1] | pest or weed control at 200 ppm [2] | pest or weed control at 12.5 ppm [3] | pest or weed control at 200 ppm [4] | pest or weed control at 200 ppm [5] | pest or weed control at 200 ppm [6] | pest or weed control at 200 ppm [7]

COc1c(NC(=O)c2ccc([N+](=O)[O-])cc2)cccc1C(=O)Nc1c(Br)cc(C(F)(C(F)(F)F)C(F)(F)F)cc1OC(F)F [Compound 39]
≥ 80%: pest or weed control at 200 ppm [1] | pest or weed control at 200 ppm [2] | pest or weed control at 12.5 ppm [3] | pest or weed control at 200 ppm [4] | pest or weed control at 200 ppm [5] | pest or weed control at 200 ppm [6] | pest or weed control at 200 ppm [7]

O=C(Nc1cccc(C(=O)Nc2c(Br)cc(C(F)(C(F)(F)F)C(F)(F)F)cc2OC(F)F)c1F)c1ccc(F)cc1F [Compound 40]
≥ 80%: pest or weed control at 200 ppm [1] | pest or weed control at 200 ppm [2] | pest or weed control at 12.5 ppm [3] | pest or weed control at 200 ppm [4] | pest or weed control at 200 ppm [5] | pest or weed control at 200 ppm [6] | pest or weed control at 200 ppm [7]

COc1c(NC(=O)c2ccc([N+](=O)[O-])cc2Cl)cccc1C(=O)Nc1c(Br)cc(C(F)(C(F)(F)F)C(F)(F)F)cc1OC(F)F [Compound 47]
≥ 80%: pest or weed control at 200 ppm [1] | pest or weed control at 200 ppm [2] | pest or weed control at 12.5 ppm [3] | pest or weed control at 200 ppm [4] | pest or weed control at 200 ppm [5] | pest or weed control at 200 ppm [6] | pest or weed control at 200 ppm [7]

O=C(Nc1cccc(C(=O)Nc2c(Cl)cc(C(F)(C(F)(F)F)C(F)(F)F)cc2OC(F)F)c1F)c1ccc([N+](=O)[O-])cc1 [Compound 49]
≥ 80%: pest or weed control at 200 ppm [1] | pest or weed control at 200 ppm [2] | pest or weed control at 12.5 ppm [3] | pest or weed control at 200 ppm [4] | pest or weed control at 200 ppm [5] | pest or weed control at 200 ppm [6] | pest or weed control at 200 ppm [7]

COc1c(NC(=O)c2ccc(OC(F)(F)F)cc2)cccc1C(=O)Nc1c(Br)cc(C(F)(C(F)(F)F)C(F)(F)F)cc1OC(F)F [Compound 50]
≥ 80%: pest or weed control at 200 ppm [1] | pest or weed control at 200 ppm [2] | pest or weed control at 12.5 ppm [3] | pest or weed control at 200 ppm [4] | pest or weed control at 200 ppm [5] | pest or weed control at 200 ppm [6] | pest or weed control at 200 ppm [7]
